One assay concerns NFκB. The assay can be described thus: Mice study #2: NFκB immunostaining of gingival tissue. In kind it is in vivo, C57BL/6 mice. The protocol: Mice study #2: Validation study for preventive and active treatment for DIGO. […] One set of these mice were used as a control disease group (FIG. 23A) while the other group was treated with folic acid (gel and in drinking water) (FIG. 23B). In the prevention and treatment group, folic acid (10 μg/ml) (Sigma-Aldrich, St. Louis MO) was included in the drinking water from the time of suture placement until end of the study (14 days). Additionally, gel applications were repeated daily until the end of the study (14 days). The four groups in this study were: • 1. Control group (n=2): no interventions were performed • 2.
Histopathology and Immunohistochemistry. Mice mandibles were fixed in 10% formaldehyde for overnight at 4° C. on the shaker with 45 rpm and then the solutions were replaced with 70% ethanol. The tissues were decalcified with 10% ethylenediaminetetraacetic acid (EDTA) for 1 week and were dehydrated through graded ethanol, cleared with xylene, and embedded in paraffin. 4 μm serial sections were cut in a buccal-lingual direction and stained with Hematoxylin and Eosin (HE) and observed under light microscopy for histomorphological evaluations.
For immunohistochemistry, unstained sections were deparaffinized in xylene for 10 minutes and then transferred to ethanol for 20 minutes. […]

The next assay concerns TLR2. The assay can be described thus: FACS of surface TLR2 on oral keratinocytes. In kind it is cell-based, human. The following applies: LPS (10 μg/ml), Phe (10 μg/ml), different concentration of folic acid, 24 hours. Here is the method:
Flow cytometry. NOKSI cells were seeded in 100 mm plates with a density of 1×10^6 cells per plate. Cells were treated with drugs, LPS, and folic acid alone or in combination. After NOKSI were detached using Corning Cell Lifter (Corning) and 10 mM EDTA in PBS, the cells were washed with FACS buffer (PBS containing 1% BSA [Sigma] and 2 mM EDTA). Cells were stained by immunofluorescence for CD282 (TLR2) and CD284 (TLR4). Fluorescent labeled antibodies at a dilution of 1:1000 in staining buffer with 2% FBS in PBS were added and incubated for 30 min in dark on ice. Cells were centrifuged and washed thrice in staining buffer and passed through a 70 μm cell strainer before data acquisition. Data analysis was performed using FlowJo (TreeStar, Ashland, OR, USA). All incubations were performed on ice.
Oral Keratinocytes Cells were treated with only LPS (10 μg/ml) for 24 hours. […] Cells were treated with LPS (10 μg/ml) and Phe (10 μg/ml) for 24 hours. […] Cells were treated with LPS (10 μg/ml), Phe (10 μg/ml), and FA ([…]) for 24 hours. […] FIG. 16.

The subject of another assay is NF-κB (p-P65). The assay can be described thus: Western blot of phospho-p65 (NF-κB) in oral keratinocytes. In kind it is cell-based, human. The protocol:
(§1) Cell Culture. Normal human oral keratinocytes (NOKSI) and fibroblast (HOF) cells were maintained in Dulbecco […] Eagle's medium (Sigma-Aldrich, St. Louis, MO, USA) supplemented with 10% fetal bovine serum (Atlas Bio-logicals, Fort Collins, CO, USA) and 100 units/mL penicillin and 100 μg/mL streptomycin (LifeTechnologies, Carlsbad, CA, USA). Cells were grown in incubator at 37° C. in a humidified chamber with 5% CO2.
(§2) Drugs treatment in cell culture. The cells were treated alone or with different combination of lipopolysaccharide, cyclosporine, phenytoin, and folic acid. All of them were purchased from Sigma-Aldrich (St. Louis, MO, USA). Each of them were used from 0 μg/ml to 40 μg/ml and the optimum concentration were found 10 μg/ml.
Western blot analysis. Cells were seeded in 60 mm plates with a density of 5×10^5 cells per plate and washed briefly with Dulbecco's phosphate-buffered saline (Gibco, Waltham, MA, USA). Whole cell lysates were prepared using RIPA lysis buffer containing protease inhibitor cocktail (Sigma-Aldrich). Total protein concentration was determined using the BCA reagent (Pierce, Waltham, MA, USA). 20 μg of total protein were resolved on sodium dodecyl sulfate-polyacrylamide gel electrophoresis and transferred to polyvinylidenedifluoride membrane and immunoblotted. The blots were incubated for 1 h in 1% bovine serum albumin (BSA) (Sigma-Aldrich) to block the non-specific bindings followed by over-night incubation in primary antibodies (MyD88 and pP65 from Cell Signaling Technology, and human LITAF ThermoFisher Sigma) at 4° C. on shaker. Next day, blots were washed for three times (10 min each) in Tris-buffered saline containing 1% Tween20 (TBST) followed by incubation with secondary antibody (Goat anti-rabbit IgG HRP) with 1:10,000 dilution for 1 h. Following washes, bands were visualized using gel documentation Imaging Systems (BioRad). The band intensities were quantified using software ImageJ (NIH, USA) and relative protein levels were normalized by β-actin (Cell Signaling). […]
(In general: Immunoblotting shows a protein as a band on a membrane.)

The next assay deals with LITAF. The assay can be described thus: Western blot of LITAF in oral keratinocytes. Type of assay: cell-based, human. Here is the method:
as §1, §2
Western blot analysis. Cells were seeded in 60 mm plates with a density of 5×10^5 cells per plate and washed briefly with Dulbecco's phosphate-buffered saline (Gibco, Waltham, MA, USA). Whole cell lysates were prepared using RIPA lysis buffer containing protease inhibitor cocktail (Sigma-Aldrich). Total protein concentration was determined using the BCA reagent (Pierce, Waltham, MA, USA). 20 μg of total protein were resolved on sodium dodecyl sulfate-polyacrylamide gel electrophoresis and transferred to polyvinylidenedifluoride membrane and immunoblotted. The blots were incubated for 1 h in 1% bovine serum albumin (BSA) (Sigma-Aldrich) to block the non-specific bindings followed by over-night incubation in primary antibodies (MyD88 and pP65 from Cell Signaling Technology, and human LITAF ThermoFisher Sigma) at 4° C. on shaker. Next day, blots were washed for three times (10 min each) in Tris-buffered saline containing 1% Tween20 (TBST) followed by incubation with secondary antibody (Goat anti-rabbit IgG HRP) with 1:10,000 dilution for 1 h. Following washes, bands were visualized using gel documentation Imaging Systems (BioRad). The band intensities were quantified using software ImageJ (NIH, USA) and relative protein levels were normalized by β-actin (Cell Signaling). To perform the western blot of animal tissue samples, the gingival tissues were collected from both BABLB/c and C57BL/6 mice studies. The soft tissues were separated from the mandibular bone and then crunched. The Bradford assay was performed to measure the protein concentration of each sample. After normalization, 20 μg of whole tissue protein lysate were proceeded for western blot analysis.

Setting [1] is: LPS, CSA, FA each 10 μg/ml, 24 hours.
The mark [2] stands for this setting: LPS, Phe, FA each 10 μg/ml, 24 hours.
Setting [3] is: normal oral keratinocyte cells, FIG. 35.

For the molecule `Nc1nc2ncc(CNc3ccc(C(=O)N[C@@H](CCC(=O)O)C(=O)O)cc3)nc2c(=O)[nH]1` [folic acid], in the assay with NFκB, the “NFκB epithelial expression, control, disease and folic acid-treated groups” value is reported as “higher in the control group followed by the disease group”. Moreover, the “TLR2 receptor on the cell surface” value in the assay on TLR2 is reported as “do not alter”. In addition, the p-P65 protein level result with NF-κB (p-P65) (setting [1]) was “inhibits CSA-induced expression”. For the same molecule, the “amount of phospho-p65 (p-P65) protein” value with NF-κB (p-P65) (setting [2]) is “reduces phosphorylation of NF-κB (p-P65)”. Moreover, the “NF-κB by western blot” value in the assay on NF-κB (p-P65) (setting [3]) is recorded as “downregulation”. The LITAF protein level result in the assay on LITAF (setting [1]) is listed as “inhibits CSA-induced expression”. The “amount of LITAF protein” value in the assay on LITAF (setting [2]) is on record as “LITAF expression is reduced”; with LITAF (different concentrations of folic acid (2.5-40 μg/ml), 24 hours), “dose dependent effect”. In addition, in the assay on LITAF (setting [3]), the “LITAF by western blot” value is reported as “downregulation”.

These data come from US20260000496A1, “MATERIALS AND METHODS FOR DRUG-INDUCED GINGIVAL OVERGROWTH” (Optimed Technology, Inc., priority 2019, published 2026).
